# Experimental data reported in patent US20230107642A1 (Erasca, Inc., priority 2020, published 2023).
# Target: T1, K-Ras G12C (Homo sapiens, UniProt P01116, G12C)
# T1 construct: This protein contained 188 amino acids in total, including an N-terminal 6-Histidine tag; made in house; host or cells: E. coli BL21
# Assay: CAF assay (% CAF; method in Example 7, not in this part)
# Assay type: binding
# Settings: 10 uM compound, 1 h incubation
row,"% CAF @ 10 uM, 1h [%]",Compound
1,91.5,"C=CC(=O)N1C[C@H](C)N(c2nc(=O)n3c4c(c(-c5ccc(F)cc5F)c(C(F)(F)F)cc24)SC[C@@H]3CN2CCN(C3CC3)CC2)C[C@H]1C (single isomer, unassigned) [Example 580]"
2,44.3,"C=CC(=O)N1C[C@H](C)N(c2nc(=O)n3c4c(c(-c5cc(Cl)c(F)cc5F)c(Cl)cc24)SC[C@@H]3CC2CCN(C3CC3)CC2)C[C@H]1C [Example 467, (3S)-7-((2S,5R)-4-acryloyl-2,5-dimethylpiperazin-1-yl)-9-chloro-10-(5-chloro-2,4-difluorophenyl)-3-((1-cyclopropylpiperidin-4-yl)methyl)-2H-[1,4]thiazino[2,3,4-ij]quinazolin-5(3H)-one]"
3,98,"C=CC(=O)N1CCN(c2nc(=O)n3c4c(c(-c5ccc(F)cc5)c(Cl)cc24)SC[C@H](OC)C3)CC1 [Example 540, (R)-8-(4-acryloylpiperazin-1-yl)-10-chloro-11-(4-fluorophenyl)-3-methoxy-3,4-dihydro-2H,6H-[1,4]thiazepino[2,3,4-ij]quinazolin-6-one]"
4,96,"C=CC(=O)N1[C@H](C)CN(c2nc(=O)n3c4c(c(-c5cc(Cl)c(F)cc5F)c(Cl)cc24)SC[C@H](OC)C3)C[C@@H]1C [Example 542, (3R)-8-((3S,5R)-4-acryloyl-3,5-dimethylpiperazin-1-yl)-10-chloro-11-(5-chloro-2,4-difluorophenyl)-3-methoxy-3,4-dihydro-2H,6H-[1,4]thiazepino[2,3,4-ij]quinazolin-6-one]"
5,92,"C=CC(=O)N1[C@H](C)CN(c2nc(=O)n3c4c(c(-c5cc(Cl)c(F)cc5F)c(Cl)cc24)SC[C@@H](OC)C3)C[C@@H]1C [Example 530, (3S)-8-((3S,5R)-4-acryloyl-3,5-dimethylpiperazin-1-yl)-10-chloro-11-(5-chloro-2,4-difluorophenyl)-3-methoxy-3,4-dihydro-2H,6H-[1,4]thiazepino[2,3,4-ij]quinazolin-6-one]"
6,79.7,C=CC(=O)N1C[C@H](C)N(c2nc(=O)n3c4c(c(-c5cc(F)c(F)cc5F)c(Cl)cc24)SC[C@@H]3CN2CCC3(CC2)COC3)C[C@H]1C [Example 460]
7,98,"C=CC(=O)N1CCN(c2nc(=O)n3c4c(c(-c5ccc(F)cc5)c(Cl)cc24)SC[C@H](OC)C3)[C@@H](C)C1 [Example 528, (R)-8-((S)-4-acryloyl-2-methylpiperazin-1-yl)-10-chloro-11-(4-fluorophenyl)-3-methoxy-3,4-dihydro-2H,6H-[1,4]thiazepino[2,3,4-ij]quinazolin-6-one]"
8,91,"C=CC(=O)N1CCN(c2nc(=O)n3c4c(c(-c5cc(Cl)c(F)cc5F)c(C(F)(F)F)cc24)SC[C@@H](OC)C3)[C@@H](C)C1 [Example 583, (3S)-8-((S)-4-acryloyl-2-methylpiperazin-1-yl)-11-(5-chloro-2,4-difluorophenyl)-3-methoxy-10-(trifluoromethyl)-3,4-dihydro-2H,6H-[1,4]thiazepino[2,3,4-ij]quinazolin-6-one]"
9,23.9,"C=CC(=O)N1CCN(c2nc(=O)n3c4c(c(-c5cc(F)c(F)cc5F)c(C(F)(F)F)cc24)SC[C@H]3COCOC)[C@@H](C)C1 [Example 471, (3R)-7-((S)-4-acryloyl-2-methylpiperazin-1-yl)-3-((methoxymethoxy)methyl)-9-(trifluoromethyl)-10-(2,4,5-trifluorophenyl)-2H-[1,4]thiazino[2,3,4-ij]quinazolin-5(3H)-one]"

# More lines, now with the values behind:
row,Compound,"% CAF @ 10 uM, 1h [%]"
1,"C=CC(=O)N1C[C@H](C)N(c2nc(=O)n3c4c(c(-c5cc(Cl)c(F)cc5F)c(Cl)cc24)SC[C@@H]3CN2CCn3c(nnc3C(F)(F)F)C2)C[C@H]1C [Example 448, (3S)-7-((2S,5R)-4-acryloyl-2,5-dimethylpiperazin-1-yl)-9-chloro-10-(5-chloro-2,4-difluorophenyl)-3-((3-(trifluoromethyl)-5,6-dihydro-[1,2,4]triazolo[4,3-a]pyrazin-7(8H)-yl)methyl)-2H-[1,4]thiazino[2,3,4-ij]quinazolin-5(3H)-one]",55
2,"C=CC(=O)N1CCN(c2nc(=O)n3c4c(c(-c5cc(Cl)c(F)cc5F)c(Cl)cc24)SC[C@@H]3CN2CCN(C3CC3)CC2)[C@@H](C)C1 [Example 458, (3S)-7-((S)-4-acryloyl-2-methylpiperazin-1-yl)-9-chloro-10-(5-chloro-2,4-difluorophenyl)-3-((4-cyclopropylpiperazin-1-yl)methyl)-2H-[1,4]thiazino[2,3,4-ij]quinazolin-5(3H)-one]",55.6
3,"C=CC(=O)N1C2CN(c3nc(=O)n4c5c(c(-c6ccc(F)cc6F)c(C(F)(F)F)cc35)SCC4)CC1CC1(COC1)C2 [Example 417, 7-(9-acryloyl-7,9-diazaspiro[bicyclo[3.3.1]nonane-3,3′-oxetan]-7-yl)-10-(2,4-difluorophenyl)-9-(trifluoromethyl)-2,3-dihydro-5H-[1,4]thiazino[2,3,4-ij]quinazolin-5-one]",2
4,"C=CC(=O)N1CCN(c2nc(=O)n3c4c(c(-c5cc(Cl)c(F)cc5F)c(Cl)cc24)SC[C@@H]3CN2CCn3c(nnc3C(F)(F)F)C2)[C@@H](C)C1 [Example 447, (3S)-7-((S)-4-acryloyl-2-methylpiperazin-1-yl)-9-chloro-10-(5-chloro-2,4-difluorophenyl)-3-((3-(trifluoromethyl)-5,6-dihydro-[1,2,4]triazolo[4,3-a]pyrazin-7(8H)-yl)methyl)-2H-[1,4]thiazino[2,3,4-ij]quinazolin-5(3H)-one]",63.3

# Same assay, conditions: 10 uM, 1 h; Table 3
row,"% CAF @ 10 uM, 1h [%]",Compound
1,40.5,"C=C(F)C(=O)N1CCN(c2nc(=O)n3c4c(c(-c5ccc(F)cc5F)c(Cl)cc24)SCC3)C[C@@H]1CC#N [Example 176, 2-((2S)-4-(9-chloro-10-(2,4-difluorophenyl)-5-oxo-2,3-dihydro-5H-[1,4]thiazino[2,3,4-ij]quinazolin-7-yl)-1-(2-fluoroacryloyl)piper-azin-2-yl)acetonitrile]"
2,95.4,"C=CC(=O)N1CCN(c2nc(=O)n3c4c(c(-c5ccc(F)cc5F)c(C5CC5)cc24)SCC3)[C@@H](C)C1 [Example 143, 7-((S)-4-acryloyl-2-methylpiperazin-1-yl)-9-cyclopropyl-10-(2,4-difluorophenyl)-2,3-dihydro-5H-[1,4]thiazino[2,3,4-ij]quinazolin-5-one]"
3,92,"C[C@H]1CN(C(=O)/C=C/C(F)(F)F)CCN1c1nc(=O)n2c3c(c(-c4ccc(Cl)c(F)c4)c(Cl)cc13)SCC2 [Example 79, (S,E)-9-chloro-10-(4-chloro-3-fluorophenyl)-7-(2-methyl-4-(4,4,4-trifluorobut-2-enoyl)piperazin-1-yl)-2,3-dihydro-5H-[1,4]thiazino[2,3,4-ij]quinazolin-5-one]"
4,86.2,"C[C@H]1CN(C(=O)/C=C/C(F)(F)F)CCN1c1nc(=O)n2c3c(c(-c4ccc(F)cc4F)c(Cl)cc13)SCC2 [Example 112, 9-chloro-10-(2,4-difluorophenyl)-7-((S)-2-methyl-4-((E)-4,4,4-trifluorobut-2-enoyl)piperazin-1-yl)-2,3-dihydro-5H-[1,4]thiazino[2,3,4-ij]quinazolin-5-one]"

row,Compound,"% CAF @ 10 uM, 1h [%]"
1,"C=CC(=O)N1CCN(c2nc(=O)n3c4c(c(-c5ccc(F)cc5F)c(Cl)cc24)[S@@+]([O-])CC3)[C@@H](C)C1 [Example 191, 7-((S)-4-acryloyl-2-methylpiperazin-1-yl)-9-chloro-10-(2,4-difluorophenyl)-2,3-dihydro-5H-[1,4]thiazino[2,3,4-ij]quinazolin-5-one 1-oxide]",26.6
2,"C=CC(=O)N1C2CC(=O)CC1CN(c1nc(=O)n3c4c(c(-c5ccc(F)cc5F)c(C(F)(F)F)cc14)SCC3)C2 [Example 101, 7-(9-acryloyl-7-oxo-3,9-diazabicyclo[3.3.1]nonan-3-yl)-10-(2,4-difluorophenyl)-9-(trifluoromethyl)-2,3-dihydro-5H-[1,4]thiazino[2,3,4-ij]quinazolin-5-one]",96.5
3,"C=CC(=O)N1C2CN(c3nc(=O)n4c5c(c(-c6ccc(F)cc6F)c(Cl)cc35)SCC4)CC1CS(=O)(=O)C2 [Example 84, 7-(9-acryloyl-3,3-dioxido-3-thia-7,9-diazabicyclo[3.3.1]nonan-7-yl)-9-chloro-10-(2,4-difluorophenyl)-2,3-dihydro-5H-[1,4]thiazino[2,3,4-ij]quinazolin-5-one]",43.8

# Same assay, conditions: 10 μM, 1 h; Table 4
row,"% CAF @ 10 μM, 1 h [%]",Compound
1,97,"C=CC(=O)N1CCN(c2nc(=O)n3c4c(c(-c5ccc(F)cc5F)c(C(F)(F)F)cc24)SC[C@@H]3CC2CCN(CC)CC2)[C@@H](C)C1 [Example 353, (3S)-7-((S)-4-acryloyl-2-methylpiperazin-1-yl)-10-(2,4-difluorophenyl)-3-((1-ethylpiperidin-4-yl)methyl)-9-(trifluoromethyl)-2H-[1,4]thiazino[2,3,4-ij]quinazolin-5(3H)-one]"
2,74,"C=CC(=O)N1CCN(c2nc(=O)n3c4c(c(-c5c(F)cc(F)cc5F)c(Cl)cc24)SC[C@@H]3CN2CCN(CC)CC2)[C@@H](C)C1 [Example 351, (S)-7-((S)-4-acryloyl-2-methylpiperazin-1-yl)-9-chloro-3-((4-ethylpiperazin-1-yl)methyl)-10-(2,4,6-trifluorophenyl)-2H-[1,4]thiazino[2,3,4-ij]quinazolin-5(3H)-one]"
3,94.8,"C=CC(=O)N1CCN(c2nc(=O)n3c4c(c(-c5c(F)cc(F)cc5F)c(Cl)cc24)SC[C@H]3CC2CCN(C)CC2)[C@@H](C)C1 [Example 344, (R)-7-((S)-4-acryloyl-2-methylpiperazin-1-yl)-9-chloro-3-((1-methylpiperidin-4-yl)methyl)-10-(2,4,6-trifluorophenyl)-2H-[1,4]thiazino[2,3,4-ij]quinazolin-5(3H)-one]"
4,82.4,"C=CC(=O)N1CCN(c2nc(=O)n3c4c(c(-c5ccc(F)cc5F)c(Cl)cc24)SC[C@H]3CC2CCN(C)CC2)[C@@H](C)C1 [Example 345, (3R)-7-((S)-4-acryloyl-2-methylpiperazin-1-yl)-9-chloro-10-(2,4-difluorophenyl)-3-((1-methylpiperidin-4-yl)methyl)-2H-[1,4]thiazino[2,3,4-ij]quinazolin-5(3H)-one]"
